According to patent publication US11548888B2, “KRas G12C inhibitors” (Mirati Therapeutics, Inc., priority 2019, dated 2023):

Target: T1, KRas G12C (Homo sapiens, UniProt P01116, G12C)
T1 construct: NCI-H358 cells (ATCC CRL-5807) express KRas G12C
Assay: Inhibition of KRas G12C-dependent cell growth: Phospho-ERK in NCI-H358 cells
Format: cell-based
Conditions: NCI-H358 cells expressing KRas G12C; Phospho-ERK (Thr202/Tyr204) normalized to GAPDH; 3 hours compound; 4 parameter fit
Method in brief: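 Phospho-ERK read-out in KRas G12C-expressing NCI-H358 cells after 3 h compound treatment (final DMSO 0.5%), by in-cell infrared immunodetection. Signal normalized to GAPDH and to DMSO controls. 4-parameter curve fit gave IC50.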

T1 sequence (P01116 1-188 isoform P01116-2 G12C): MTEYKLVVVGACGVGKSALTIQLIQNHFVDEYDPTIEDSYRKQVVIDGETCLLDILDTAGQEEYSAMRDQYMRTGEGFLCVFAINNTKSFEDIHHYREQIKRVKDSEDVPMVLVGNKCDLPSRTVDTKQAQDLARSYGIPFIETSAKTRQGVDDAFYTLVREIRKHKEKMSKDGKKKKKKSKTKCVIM

In order of falling IC50:
1. C=CC(=O)N1CCN(c2ncnc3c(F)c(-c4cccc5ccccc45)ncc23)CC1 [Example 223]  10000 nM
2. C=CC(=O)N1CCN(c2ncnc3c(F)c(-c4cc(Cl)cc5ccccc45)ncc23)CC1 [Example 255]  10000 nM
3. C=CC(=O)N1CCN(c2ncnc3c(F)c(-c4cc(C#N)cc5ccccc45)ncc23)CC1 [Example 256]  10000 nM
4. C=CC(=O)N1CCN(c2ncnc3c(F)c(-c4cccc5ccc(F)c(Cl)c45)ncc23)CC12CC2 [Example 234]  10000 nM
5. C=CC(=O)N1CCN(c2ncnc3c(F)c(-c4ccccc4F)ncc23)[C@@H](C)C1 [Example 186]  10000 nM
6. C=CC(=O)N1CCN(c2ncnc3c(F)c(-c4c(C)c(C)cc5[nH]ncc45)ncc23)CC1 [Example 198]  8000 nM
7. C=C(F)C(=O)N1CCN(c2nc(Oc3cccc4c3CCN(C)C4)nc3c(F)c(-c4cccc5ccc(F)c(Cl)c45)ncc23)C[C@@H]1CC#N [Example 207]  6850 nM
8. C=CC(=O)N1CCN(c2ncnc3c(F)c(-c4cccc5ccc(F)c(Cl)c45)ncc23)CC1C#N (centres unmarked) [Example 135]  6050 nM
9. C=CC(=O)N1CC[C@@H]2[C@H]1CN2c1ncnc2c(F)c(-c3cccc4cccc(C)c34)ncc12 [Example 283]  2430 nM
10. C#Cc1cccc2cc(Cl)cc(-c3ncc4c(N5C[C@@H]6[C@H]5CCN6C(=O)C=C)ncnc4c3F)c12 [Example 294, 1-((1R,5R)-6-(7-(3-chloro-8-ethynylnaphthalen-1-yl)-8-fluoropyrido[4,3-d]pyrimidin-4-yl)-2,6-diazabicyclo[3.2.0]heptan-2-yl)prop-2-en-1-one]  2150 nM
11. C#Cc1cccc2cccc(-c3ncc4c(N5CCN(C(=O)C=C)CC5)ncnc4c3F)c12 [Example 214, 1-(4-(7-(8-ethynylnaphthalen-1-yl)-8-fluoropyrido[4,3-d]pyrimidin-4-yl)piperazin-1-yl)prop-2-en-1-one]  2110 nM
12. C=C(F)C(=O)N1CCN(c2nc(OCc3ccn[nH]3)nc3c(F)c(-c4cccc5ccc(F)c(Cl)c45)ncc23)C[C@@H]1CC#N [Example 124]  1770 nM
13. C=C(F)C(=O)N1CCN(c2ncnc3c(F)c(-c4cc(O)cc5ccccc45)ncc23)C[C@@H]1CC#N [Example 162]  590 nM
14. C=CC(=O)N1CCN(c2ncnc3cc(-c4cccc5cccc(C)c45)ncc23)C[C@@H]1CC#N [Example 40, (S)-2-(1-acryloyl-4-(7-(8-methylnaphthalen-1-yl)pyrido[4,3-d]pyrimidin-4-yl)piperazin-2-yl)acetonitrile]  496 nM
15. O=C(/C=C/C(F)F)N1CC[C@@H]2[C@H]1CN2c1ncnc2c(F)c(-c3cccc4ccc(F)c(Cl)c34)ncc12 [Example 261]  486 nM
16. C=CC(=O)N1CCN(c2nc(OC[C@@H]3CCCN3C)nc3cc(-c4cc(O)cc5ccccc45)ncc23)CC1 [Example 6, 1-[4-[7-(3-hydroxy-1-naphthyl)-2-[[(2S)-1-methylpyrrolidin-2-yl]methoxy]pyrido[4,3-d]pyrimidin-4-yl]piperazin-1-yl]prop-2-en-1-one]  300 nM
17. C=CC(=O)N1CCN(c2nc(OC[C@@H]3CCCN3C)nc3c(F)c(-c4cncc5cccc(Cl)c45)ncc23)[C@@H](C)C1 [Example 96]  200 nM
18. C=C(F)C(=O)N1CCN(c2nc(OCC3CCO3)nc3c(F)c(-c4cccc5ccc(F)c(Cl)c45)ncc23)C[C@@H]1CC#N (some centres unmarked) [Example 156]  134 nM
19. C=CC(=O)N1CC[C@@H]2[C@H]1CN2c1ncnc2c(F)c(-c3cccc4ccc(F)c(Cl)c34)ncc12 [Example 175]  134 nM
20. C=CC(=O)N1CCN(c2nc(OC[C@@H]3CCCN3C)nc3c(F)c(-c4cccc5ccc(F)c(Cl)c45)ncc23)CC1C(F)(F)F (some centres unmarked) [Example 163]  110 nM
21. C=C(F)C(=O)N1CCN(c2nc(OC[C@@H]3CCCN3C)nc3c(C)c(-c4cccc5cccc(C)c45)ncc23)C[C@@H]1CC#N [Example 33, 2-[(2S)-1-(2-fluoroprop-2-enoyl)-4-[8-methyl-7-(8-methyl-1-naphthyl)-2-[[(2S)-1-methylpyrrolidin-2-yl]methoxy]pyrido[4,3-d]pyrimidin-4-yl]piperazin-2-yl]acetonitrile]  79 nM
22. C=C(F)C(=O)N1CCN(c2nc(OCCCN3C[C@@H]4C[C@H]3CO4)nc3c(F)c(-c4cccc5ccc(F)c(Cl)c45)ncc23)C[C@@H]1CC#N [Example 129]  73 nM
23. C#Cc1cccc2cccc(-c3ncc4c(N5CCN(C(=O)C=C)CC5)nc(OC[C@@H]5CCCN5C)nc4c3F)c12 [Example 213, (S)-1-(4-(7-(8-ethynylnaphthalen-1-yl)-8-fluoro-2-((1-methylpyrrolidin-2-yl)methoxy)pyrido[4,3-d]pyrimidin-4-yl)piperazin-1-yl)prop-2-en-1-one]  62 nM
24. C=C(F)C(=O)N1CCN(c2nc(OC[C@@H]3C[C@@H](F)CN3C)nc3c(F)c(-c4cncc5cccc(C)c45)ncc23)C[C@@H]1CC#N [Example 50, 2-[(2S)-4-[8-fluoro-2-[[(2S,4R)-4-fluoro-1-methyl-pyrrolidin-2-yl]methoxy]-7-(5-methyl-4-isoquinolyl)pyrido[4,3-d]pyrimidin-4-yl]-1-(2-fluoroprop-2-enoyl)piperazin-2-yl]acetonitrile]  53 nM
25. C=C(F)C(=O)N1CCN(c2nc(OC[C@@H]3C[C@@H](OC)CN3C)nc3c(F)c(-c4cncc5cccc(C)c45)ncc23)C[C@@H]1CC#N [Example 34, 2-[(2S)-4-[8-fluoro-2-[[(2S,4R)-4-methoxy-1-methyl-pyrrolidin-2-yl]methoxy]-7-(5-methyl-4-isoquinolyl)pyrido[4,3-d]pyrimidin-4-yl]-1-(2-fluoroprop-2-enoyl)piperazin-2-yl]acetonitrile]  45 nM
26. C#Cc1cccc2cc(O)cc(-c3ncc4c(N5CCN(C(=O)C=C)CC5)ncnc4c3F)c12 [Example 215, 1-(4-(7-(8-ethynyl-3-hydroxynaphthalen-1-yl)-8-fluoropyrido[4,3-d]pyrimidin-4-yl)piperazin-1-yl)prop-2-en-1-one]  31 nM
27. C=C(F)C(=O)N1CCN(c2nc(OC[C@H]3[C@@H]4CC[C@@H](C4)N3CCF)nc3c(F)c(-c4cccc5ccc(F)c(Cl)c45)ncc23)C[C@@H]1CC#N [Example 195]  31 nM
28. C#Cc1c(F)ccc2cccc(-c3ncc4c(N5C[C@@H]6[C@H]5CCN6C(=O)C=C)ncnc4c3F)c12 [Example 290, 1-((1R, 5R)-6-(7-(8-ethynyl-7-fluoronaphthalen-1-yl)-8-fluoropyrido[4,3-d]pyrimidin-4-yl)-2,6-diazabicyclo[3.2.0]heptan-2-yl)prop-2-en-1-one]  30 nM
29. C=C(F)C(=O)N1CCN(c2nc(OC[C@@H]3C[C@H](F)CN3C)nc3c(F)c(-c4cccc5ccc(F)c(Cl)c45)ncc23)C[C@@H]1CC#N [Example 166]  26 nM
30. C=CC(=O)N1CCN(c2ncnc3c(F)c(-c4cc(O)cc5ccccc45)ncc23)C[C@@H]1CC#N [Example 220, (S)-2-(1-acryloyl-4-(8-fluoro-7-(3-hydroxynaphthalen-1-yl)pyrido[4,3-d]pyrimidin-4-yl)piperazin-2-yl)acetonitrile]  22 nM
31. C=C(F)C(=O)N1CCN(c2nc(OCC3CCC4CCCN43)nc3c(F)c(-c4cccc5ccc(F)c(Cl)c45)ncc23)C[C@@H]1CC#N (some centres unmarked) [Example 174]  20 nM
32. Cc1cccc2cncc(-c3ncc4c(N5CCN(C(=O)/C=C/CF)[C@@H](CC#N)C5)nc(OC[C@@H]5C[C@@H](F)CN5C)nc4c3F)c12 [Example 51, 2-[(2S)-1-[(E)-4-fluorobut-2-enoyl]-4-[8-fluoro-2-[[(2S,4R)-4-fluoro-1-methyl-pyrrolidin-2-yl]methoxy]-7-(5-methyl-4-isoquinolyl)pyrido[4,3-d]pyrimidin-4-yl]piperazin-2-yl]acetonitrile]  19 nM
33. CN1CCC[C@H]1COc1nc(N2CCN(C(=O)/C=C/CF)[C@@H](CC#N)C2)c2cnc(-c3cccc4cccc(Cl)c34)c(F)c2n1 [Example 23, 2-((S)-4-(7-(8-chloronaphthalen-1-yl)-8-fluoro-2-(((S)-1-methylpyrrolidin-2-yl)methoxy)pyrido[4,3-d]pyrimidin-4-yl)-1-((E)-4-fluorobut-2-enoyl)piperazin-2-yl)acetonitrile]  18 nM
34. C=CC(=O)N1CC[C@@H]2[C@H]1CN2c1ncnc2c(F)c(-c3cc(O)cc4cccc(Cl)c34)ncc12 [Example 288, 1-((1R,5R)-6-(7-(8-chloro-3-hydroxynaphthalen-1-yl)-8-fluoropyrido[4,3-d]pyrimidin-4-yl)-2,6-diazabicyclo[3.2.0]heptan-2-yl)prop-2-en-1-one]  15 nM
35. COC/C=C/C(=O)N1CCN(c2nc(OC[C@@H]3C[C@@H](F)CN3C)nc3c(F)c(-c4cccc5cccc(Cl)c45)ncc23)C[C@@H]1CC#N [Example 44, 2-[(2S)-4-[7-(8-chloro-1-naphthyl)-8-fluoro-2-[[(2S,4R)-4-fluoro-1-methyl-pyrrolidin-2-yl]methoxy]pyrido[4,3-d]pyrimidin-4-yl]-1-[(E)-4-methoxybut-2-enoyl]piperazin-2-yl]acetonitrile]  15 nM
36. COC/C=C/C(=O)N1CCN(c2nc(OC[C@@H]3CCCN3C)nc3c(F)c(-c4cccc5cccc(Cl)c45)ncc23)C[C@@H]1CC#N [Example 78]  13 nM
37. CC(C)(C)N1CCC1COc1nc(N2CCN(C(=O)/C=C/CF)[C@@H](CC#N)C2)c2cnc(-c3cccc4cccc(Cl)c34)c(F)c2n1 (some centres unmarked) [Example 66]  12 nM
38. C=CC(=O)N1CCN(c2nc(OC[C@@H]3CCCN3C)nc3c(F)c(-c4cccc5ccccc45)ncc23)C[C@@H]1CC#N [Example 7, 2-[(2S)-4-[8-fluoro-2-[[(2S)-1-methylpyrrolidin-2-yl]methoxy]-7-(1-naphthyl)pyrido[4,3-d]pyrimidin-4-yl]-1-prop-2-enoyl-piperazin-2-yl]acetonitrile]  7 nM
